# According to US9499519B2, “Fused pyrimidine compounds and use thereof” (Medivation Technologies, Inc., priority 2012, dated 2016):
# Assays:
# [1] = tested on: Akt phosphorylation induced by IGF-1R; assay: Western blot analysis of Akt phosphorylation induced by IGF-1 in HT-29 cells; type: cell-based, Human; settings: for Levels of phosphorylated AKT in treated cells (pAKT/actin): HT-29 cells, IGF-1; for p-AKT relative to levels with 0.1 nM compound: Table B2 lower part; for Normalized phosphorylated AKT (relative to actin) levels relative to 0.1 nM compound treatment: Table B2 upper part; for pAKT relative to 0.1 nM compound: derivatives of Cpd. No. 8b
# Outline: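 HT-29 cells grown 24 h in DME/F12 with 10% FBS, serum-starved 24 h, then exposed 2 h to compound at 0.1, 1, 10 or 100; controls received DMSO or 10 ng/mL IGF-1. Lysate soluble fractions quantified by BCA before western blotting for phospho-Akt.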
# IGF-1R = target: T1, IGF-1R (Homo sapiens, UniProt P08069); assay: In vitro IGF-1R enzymatic assay (ADP-Glo kinase assay); type: biochemical; settings: activated IGF-1R
# T1 construct: purchased Millipore 14-802
# T1 sequence (P08069 31-1367): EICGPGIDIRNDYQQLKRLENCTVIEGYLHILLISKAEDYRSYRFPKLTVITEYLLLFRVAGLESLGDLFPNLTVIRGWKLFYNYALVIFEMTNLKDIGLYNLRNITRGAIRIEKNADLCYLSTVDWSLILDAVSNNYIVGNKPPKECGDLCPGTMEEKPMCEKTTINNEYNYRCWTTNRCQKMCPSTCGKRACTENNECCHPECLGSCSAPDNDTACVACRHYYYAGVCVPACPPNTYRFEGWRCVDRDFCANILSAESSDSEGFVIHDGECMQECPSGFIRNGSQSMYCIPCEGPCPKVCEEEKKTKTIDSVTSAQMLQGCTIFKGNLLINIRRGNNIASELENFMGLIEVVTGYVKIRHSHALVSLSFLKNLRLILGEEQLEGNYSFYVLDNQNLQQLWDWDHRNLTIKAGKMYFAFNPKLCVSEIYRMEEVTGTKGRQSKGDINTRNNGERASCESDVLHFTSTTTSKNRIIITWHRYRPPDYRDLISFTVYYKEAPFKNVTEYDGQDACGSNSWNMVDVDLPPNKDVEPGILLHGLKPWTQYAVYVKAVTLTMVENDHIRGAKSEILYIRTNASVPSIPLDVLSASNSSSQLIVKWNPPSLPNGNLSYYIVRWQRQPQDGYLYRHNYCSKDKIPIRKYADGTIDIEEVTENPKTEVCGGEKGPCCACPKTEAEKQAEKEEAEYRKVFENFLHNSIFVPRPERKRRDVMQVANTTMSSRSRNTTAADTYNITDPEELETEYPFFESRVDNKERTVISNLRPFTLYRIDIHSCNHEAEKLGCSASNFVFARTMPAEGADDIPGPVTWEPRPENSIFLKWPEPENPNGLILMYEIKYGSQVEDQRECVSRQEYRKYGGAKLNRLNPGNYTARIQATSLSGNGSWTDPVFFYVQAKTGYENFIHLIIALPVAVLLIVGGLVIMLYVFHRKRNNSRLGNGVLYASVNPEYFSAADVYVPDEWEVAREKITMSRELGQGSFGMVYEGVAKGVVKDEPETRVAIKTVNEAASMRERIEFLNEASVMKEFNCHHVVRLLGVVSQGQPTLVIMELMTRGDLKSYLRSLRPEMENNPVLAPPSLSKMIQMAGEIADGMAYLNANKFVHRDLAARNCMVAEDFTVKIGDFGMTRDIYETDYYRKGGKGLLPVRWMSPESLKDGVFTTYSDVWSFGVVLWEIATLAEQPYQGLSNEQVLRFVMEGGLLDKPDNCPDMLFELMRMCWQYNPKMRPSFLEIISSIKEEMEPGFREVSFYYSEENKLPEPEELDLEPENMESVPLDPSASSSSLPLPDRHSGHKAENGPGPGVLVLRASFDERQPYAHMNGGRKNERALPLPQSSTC
# Procedure: (§1) IC50 values of the compounds of the invention against IGF-1R and IR were measured in vitro using an ADP-Glo kinase assay Kit (Promega). […] Kinase reactions in both assays were conducted at 30° C. for 20 min with increasing concentrations of compounds of the invention.
# Additional compounds of the invention were screened against activated IGF-1R.
# IR = target: T2, IR (Homo sapiens, UniProt P06213); assay: In vitro IR enzymatic assay (ADP-Glo kinase assay); type: biochemical; settings: activated IR
# T2 construct: purchased Millipore 14-803
# T2 sequence (P06213 28-1382): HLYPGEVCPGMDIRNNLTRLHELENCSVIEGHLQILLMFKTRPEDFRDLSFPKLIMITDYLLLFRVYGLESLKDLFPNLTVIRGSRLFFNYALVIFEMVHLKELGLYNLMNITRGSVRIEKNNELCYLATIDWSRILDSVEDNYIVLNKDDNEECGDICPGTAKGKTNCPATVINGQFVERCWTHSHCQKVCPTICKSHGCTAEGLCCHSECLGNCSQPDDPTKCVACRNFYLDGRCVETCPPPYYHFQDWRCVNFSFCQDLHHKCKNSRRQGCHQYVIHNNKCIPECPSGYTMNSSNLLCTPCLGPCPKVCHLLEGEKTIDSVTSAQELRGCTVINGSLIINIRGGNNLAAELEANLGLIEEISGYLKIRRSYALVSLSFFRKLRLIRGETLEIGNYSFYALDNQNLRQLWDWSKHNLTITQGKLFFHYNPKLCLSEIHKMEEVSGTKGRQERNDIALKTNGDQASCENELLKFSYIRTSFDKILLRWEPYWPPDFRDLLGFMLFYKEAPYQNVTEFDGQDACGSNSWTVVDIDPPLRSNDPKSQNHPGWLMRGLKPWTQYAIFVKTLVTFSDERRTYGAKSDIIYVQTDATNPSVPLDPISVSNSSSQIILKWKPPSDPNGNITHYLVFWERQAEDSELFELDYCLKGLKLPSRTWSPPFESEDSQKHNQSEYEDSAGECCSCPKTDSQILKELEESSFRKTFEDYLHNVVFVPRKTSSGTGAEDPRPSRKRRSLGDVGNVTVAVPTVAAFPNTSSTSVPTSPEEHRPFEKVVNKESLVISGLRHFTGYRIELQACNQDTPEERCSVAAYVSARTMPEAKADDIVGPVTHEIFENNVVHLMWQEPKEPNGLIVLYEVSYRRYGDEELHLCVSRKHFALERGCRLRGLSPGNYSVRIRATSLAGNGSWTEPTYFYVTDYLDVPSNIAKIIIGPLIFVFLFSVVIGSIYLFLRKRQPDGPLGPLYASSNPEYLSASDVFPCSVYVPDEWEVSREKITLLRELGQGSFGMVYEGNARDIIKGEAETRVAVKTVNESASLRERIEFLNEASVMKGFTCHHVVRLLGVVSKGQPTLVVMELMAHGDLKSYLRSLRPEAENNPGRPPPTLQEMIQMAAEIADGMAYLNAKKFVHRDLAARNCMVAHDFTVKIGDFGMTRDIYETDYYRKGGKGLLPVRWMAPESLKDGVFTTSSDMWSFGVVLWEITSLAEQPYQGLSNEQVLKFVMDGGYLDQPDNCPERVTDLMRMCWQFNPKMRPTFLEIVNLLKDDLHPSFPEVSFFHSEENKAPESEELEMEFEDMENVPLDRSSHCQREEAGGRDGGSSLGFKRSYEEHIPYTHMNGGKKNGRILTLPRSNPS
# Procedure: as §1
# Additional compounds of the invention were screened against activated IR.
# AXL [2] = target: T3, AXL (Homo sapiens, UniProt P30530); assay: Caliper kinase assay: AXL; settings: 0.01 μM
# T3 sequence (P30530 26-894): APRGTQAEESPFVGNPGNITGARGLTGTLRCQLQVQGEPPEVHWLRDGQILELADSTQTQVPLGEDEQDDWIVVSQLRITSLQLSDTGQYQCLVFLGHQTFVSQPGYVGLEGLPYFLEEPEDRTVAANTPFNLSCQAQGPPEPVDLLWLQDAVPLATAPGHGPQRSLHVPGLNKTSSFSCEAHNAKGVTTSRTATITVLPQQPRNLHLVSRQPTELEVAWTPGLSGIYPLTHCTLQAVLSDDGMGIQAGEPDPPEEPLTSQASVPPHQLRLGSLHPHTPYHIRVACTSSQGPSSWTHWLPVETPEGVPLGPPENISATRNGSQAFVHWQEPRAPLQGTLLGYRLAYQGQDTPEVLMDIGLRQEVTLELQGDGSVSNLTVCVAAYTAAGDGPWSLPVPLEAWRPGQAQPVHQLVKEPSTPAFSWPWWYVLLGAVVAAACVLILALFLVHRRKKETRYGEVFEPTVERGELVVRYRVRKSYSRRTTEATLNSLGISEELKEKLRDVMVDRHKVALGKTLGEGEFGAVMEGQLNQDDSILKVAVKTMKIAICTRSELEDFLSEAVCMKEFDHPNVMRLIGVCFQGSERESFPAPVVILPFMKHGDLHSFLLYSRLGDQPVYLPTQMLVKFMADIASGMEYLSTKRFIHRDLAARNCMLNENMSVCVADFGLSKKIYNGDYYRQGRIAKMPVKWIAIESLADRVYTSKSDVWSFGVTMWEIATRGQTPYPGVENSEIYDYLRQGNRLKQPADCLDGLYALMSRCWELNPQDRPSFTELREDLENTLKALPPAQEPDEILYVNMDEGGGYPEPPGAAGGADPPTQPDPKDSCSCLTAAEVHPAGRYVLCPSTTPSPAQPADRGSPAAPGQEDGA
# Procedure: (§4) The compound was tested at concentrations of 1.0×10^−8 and 1.0×10^−9 M in the RapidKinase192™ panel in duplicate. […] The screening was performed using the Caliper EZReader2, a 4-sipper LabChip, and ProfilerPro Kinase Selectivity Assay Kits 1 and 2. The assay measures the conversion of a fluorescent peptide substrate to a phosphorylated product. Briefly, the reaction mixture was introduced through a capillary sipper onto the microfluidic chip, where the substrate and product were electrophoretically separated and detected by laser-induced fluorescence. The time-dependent fluorescence signal indicates the extent of the reaction.
# (§5) The kinases tested were AurA, AurB, AurC, AXL, FAK2, IGF1R, InsR, Mer, MET, Trk B and Trk C.
# (§6) The assays were conducted using the Caliper LabChip 3000 and a 12-sipper LabChip as described above.
# NTRK2(TRKB) = NTRK2(TRKB) (Homo sapiens, UniProt Q16620); assay: Caliper kinase assay: NTRK2 (TRKB); settings: Trk B, 0.01 μM
# Procedure: as §4, §5, §6
# TRKC(NTRK3) = TRKC(NTRK3) (Homo sapiens, UniProt Q16288); assay: Caliper kinase assay: TRKC (NTRK3); settings: Trk C, 0.01 μM
# Chain of TRKC(NTRK3) (Q16288 32-839): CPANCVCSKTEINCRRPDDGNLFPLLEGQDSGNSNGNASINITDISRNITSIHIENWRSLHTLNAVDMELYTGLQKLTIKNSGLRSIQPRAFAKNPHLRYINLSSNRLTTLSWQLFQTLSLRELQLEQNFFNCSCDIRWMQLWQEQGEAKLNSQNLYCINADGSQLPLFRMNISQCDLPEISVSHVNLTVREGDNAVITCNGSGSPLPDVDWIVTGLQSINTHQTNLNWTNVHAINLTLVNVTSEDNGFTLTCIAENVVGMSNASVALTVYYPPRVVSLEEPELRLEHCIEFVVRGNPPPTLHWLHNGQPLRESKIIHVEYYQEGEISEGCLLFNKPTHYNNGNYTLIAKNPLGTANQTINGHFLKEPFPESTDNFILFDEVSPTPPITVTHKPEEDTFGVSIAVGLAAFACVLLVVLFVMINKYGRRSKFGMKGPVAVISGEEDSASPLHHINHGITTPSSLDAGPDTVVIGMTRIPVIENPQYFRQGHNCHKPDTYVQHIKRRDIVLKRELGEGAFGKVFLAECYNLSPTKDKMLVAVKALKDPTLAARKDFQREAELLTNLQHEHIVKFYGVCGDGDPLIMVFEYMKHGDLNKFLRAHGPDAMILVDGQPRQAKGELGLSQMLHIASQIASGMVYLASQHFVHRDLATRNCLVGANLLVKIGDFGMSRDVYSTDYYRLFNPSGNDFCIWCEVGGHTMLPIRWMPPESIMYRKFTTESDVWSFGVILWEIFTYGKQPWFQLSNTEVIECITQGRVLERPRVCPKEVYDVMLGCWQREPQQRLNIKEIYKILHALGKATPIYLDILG
# Procedure: as §4, §5, §6
# PYK2 = PYK2 (Homo sapiens, UniProt Q14289); assay: Caliper kinase assay: PYK2 (called FAK2); settings: FAK2, 0.01 μM
# Chain of PYK2 (Q14289 whole entry): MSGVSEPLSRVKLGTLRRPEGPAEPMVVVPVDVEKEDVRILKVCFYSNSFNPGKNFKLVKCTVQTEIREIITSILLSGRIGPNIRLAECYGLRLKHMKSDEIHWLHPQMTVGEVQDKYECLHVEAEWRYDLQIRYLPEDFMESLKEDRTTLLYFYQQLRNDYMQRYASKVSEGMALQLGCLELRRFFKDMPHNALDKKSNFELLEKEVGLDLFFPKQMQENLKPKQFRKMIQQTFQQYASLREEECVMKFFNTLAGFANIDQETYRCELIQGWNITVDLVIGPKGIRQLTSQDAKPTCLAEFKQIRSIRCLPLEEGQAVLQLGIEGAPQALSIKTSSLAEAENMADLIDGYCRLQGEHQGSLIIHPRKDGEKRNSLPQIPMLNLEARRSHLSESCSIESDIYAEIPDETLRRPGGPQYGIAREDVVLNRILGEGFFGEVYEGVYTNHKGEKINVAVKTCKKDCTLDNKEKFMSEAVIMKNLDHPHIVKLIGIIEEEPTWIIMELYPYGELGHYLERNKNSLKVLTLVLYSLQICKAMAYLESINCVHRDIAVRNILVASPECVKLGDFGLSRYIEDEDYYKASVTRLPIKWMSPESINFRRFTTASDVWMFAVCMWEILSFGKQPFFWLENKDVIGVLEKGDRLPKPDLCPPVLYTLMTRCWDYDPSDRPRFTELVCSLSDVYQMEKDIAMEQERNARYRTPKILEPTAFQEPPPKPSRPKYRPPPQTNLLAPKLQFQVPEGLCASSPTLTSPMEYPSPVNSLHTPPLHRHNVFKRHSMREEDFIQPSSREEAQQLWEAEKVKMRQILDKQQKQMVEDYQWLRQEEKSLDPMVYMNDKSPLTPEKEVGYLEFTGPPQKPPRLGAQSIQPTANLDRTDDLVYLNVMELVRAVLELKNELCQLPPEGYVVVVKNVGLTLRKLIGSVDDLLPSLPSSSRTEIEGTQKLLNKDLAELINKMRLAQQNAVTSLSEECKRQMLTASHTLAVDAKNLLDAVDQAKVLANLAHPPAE
# Procedure: as §4, §5, §6
# Trk C = Trk C (Homo sapiens, UniProt Q16288); assay: HotSpot kinase assay: Trk C; type: biochemical; settings: 100 nM compound; HotSpot; read-out: % Enzyme Inhibition @ 100 nM Trk C
# Chain of Trk C (Q16288 32-839): as the sequence (Q16288 32-839) above
# Procedure: (§2) Each compound was tested at a concentration of 0.1 μM in single duplicate mode against the 3 kinases. Compounds were prepared as 10 mM stock solutions in DMSO prior to use in the assay. […] IC50 values and curve fits were obtained using Prism (GraphPad Software).
# (§3) The screening was performed using the “HotSpot” assay platform. The assay measures the conversion of a peptide substrate to ^33P-labelled phosphorylated product. Briefly, specific kinase/substrate pairs along with required cofactors were prepared in reaction buffer. Specifically, the substrate was prepared in reaction buffer (20 mM Hepes, pH 7.5; 10 mM MgCl2; 1 mM EGTA; 0.02% Brij35; 0.02 mg/mL BSA; 0.1 mM Na3VO4; 2 mM DTT; 1% DMSO), followed by delivery of any required cofactor to the resulting substrate solution. The corresponding kinase was delivered into the substrate solution and the reaction mixture was mixed gently. Compound was delivered into the reaction mixture, followed 15-20 minutes later by addition of a mixture of ATP (Sigma, St. Louis Mo.) and ^33P ATP (specific activity 0.01 μCi/μL final; Perkin Elmer, Waltham, Mass.) to a final concentration of 10 μM-30 μM to initiate the reaction. […] The percent of enzyme inhibition was calculated based on the percent of remaining kinase activity.
# as §2, with “Kinase assays were performed using additional compounds against a panel of 4 kinases: AXL; c-Met; c-Mer; and Trk C. Each” for “Each”, “[…]” for “μM”, “4” for “3”
# AXL [3] = target: T3, AXL; assay: HotSpot kinase assay: AXL; type: biochemical; settings: 100 nM compound, read-out: % Enzyme Inhibition @ 100 nM AXL
# Procedure: as §2, with “Kinase assays were performed using additional compounds against a panel of 4 kinases: AXL; c-Met; c-Mer; and Trk C. Each” for “Each”, “[…]” for “μM”, “4” for “3”
# as §3
# c-Met = c-Met (Homo sapiens, UniProt P08581); assay: HotSpot kinase assay: c-Met; type: biochemical; settings: 100 nM compound, read-out: % Enzyme Inhibition @ 100 nM c-MET
# Procedure: as §2, with “Kinase assays were performed using additional compounds against a panel of 4 kinases: AXL; c-Met; c-Mer; and Trk C. Each” for “Each”, “[…]” for “μM”, “4” for “3”
# as §3
# c-Mer = target: T4, c-Mer (Homo sapiens, UniProt Q12866); assay: HotSpot kinase assay: c-Mer; type: biochemical; settings: 100 nM compound, read-out: % Enzyme Inhibition @ 100 nM c-MER
# T4 sequence (Q12866 21-999): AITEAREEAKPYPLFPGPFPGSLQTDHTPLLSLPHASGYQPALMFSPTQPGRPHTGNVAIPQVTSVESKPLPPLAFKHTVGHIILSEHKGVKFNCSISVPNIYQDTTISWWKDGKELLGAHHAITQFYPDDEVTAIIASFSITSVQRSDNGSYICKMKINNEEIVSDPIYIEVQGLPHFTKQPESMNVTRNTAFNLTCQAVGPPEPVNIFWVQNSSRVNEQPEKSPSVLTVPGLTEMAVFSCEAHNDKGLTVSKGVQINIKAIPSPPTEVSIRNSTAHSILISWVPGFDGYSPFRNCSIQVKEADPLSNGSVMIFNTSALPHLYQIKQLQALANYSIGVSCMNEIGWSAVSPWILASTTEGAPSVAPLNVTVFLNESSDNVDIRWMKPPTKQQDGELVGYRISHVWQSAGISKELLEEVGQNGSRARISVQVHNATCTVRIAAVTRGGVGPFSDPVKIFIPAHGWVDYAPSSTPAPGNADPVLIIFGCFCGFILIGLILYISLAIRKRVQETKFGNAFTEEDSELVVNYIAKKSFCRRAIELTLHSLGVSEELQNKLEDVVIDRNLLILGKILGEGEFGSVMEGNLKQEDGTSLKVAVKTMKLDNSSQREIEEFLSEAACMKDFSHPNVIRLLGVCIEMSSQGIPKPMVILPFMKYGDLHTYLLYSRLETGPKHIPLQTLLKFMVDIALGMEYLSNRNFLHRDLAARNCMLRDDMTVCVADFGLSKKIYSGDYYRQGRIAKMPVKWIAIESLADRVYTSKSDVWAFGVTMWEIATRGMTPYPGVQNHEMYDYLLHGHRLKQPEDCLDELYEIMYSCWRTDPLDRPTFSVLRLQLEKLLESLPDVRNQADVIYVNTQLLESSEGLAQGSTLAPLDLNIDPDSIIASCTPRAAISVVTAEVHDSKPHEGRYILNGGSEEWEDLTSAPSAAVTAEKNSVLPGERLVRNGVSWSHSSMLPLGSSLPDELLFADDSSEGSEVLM
# Procedure: as §2, with “Kinase assays were performed using additional compounds against a panel of 4 kinases: AXL; c-Met; c-Mer; and Trk C. Each” for “Each”, “[…]” for “μM”, “4” for “3”
# as §3
compound,measurement,setting,value
"O=C(Nc1ccc(F)nc1)C1CC(O)CN1c1nc2c(c(Nc3cc(C4CC4)[nH]n3)n1)CCC2 (racemic) [Compound 10a, (2S,4R)-1-(4-(5-cyclopropyl-1H-pyrazol-3-ylamino)-6,7-dihydro-5H-cyclopenta[d]pyrimidin-2-yl)-N-(6-fluoropyridin-3-yl)-4-hydroxypyrrolidine-2-carboxamide]",Levels of phosphorylated AKT in treated cells (pAKT/actin),[1]; 0.1 nM compound,2.28
same,p-AKT relative to levels with 0.1 nM compound,[1]; 0.1 nM,1.0
same,Normalized phosphorylated AKT (relative to actin) levels relative to 0.1 nM compound treatment,[1]; 0.1 nM,1.0
same,pAKT relative to 0.1 nM compound,[1]; 0.1 nM,1.00
same,Levels of phosphorylated AKT in treated cells (pAKT/actin),[1]; 1 nM compound,0.54
same,p-AKT relative to levels with 0.1 nM compound,[1]; 1 nM,0.2
same,Normalized phosphorylated AKT (relative to actin) levels relative to 0.1 nM compound treatment,[1]; 1 nM,0.2
same,pAKT relative to 0.1 nM compound,[1]; 1 nM,0.69
same,Levels of phosphorylated AKT in treated cells (pAKT/actin),[1]; 10 nM compound,0.00
same,p-AKT relative to levels with 0.1 nM compound,[1]; 10 nM,0.0
same,Normalized phosphorylated AKT (relative to actin) levels relative to 0.1 nM compound treatment,[1]; 10 nM,0.0
same,pAKT relative to 0.1 nM compound,[1]; 10 nM,0.16
same,Levels of phosphorylated AKT in treated cells (pAKT/actin),[1]; 100 nM compound,0.01
same,p-AKT relative to levels with 0.1 nM compound,[1]; 100 nM,0.0
same,Normalized phosphorylated AKT (relative to actin) levels relative to 0.1 nM compound treatment,[1]; 100 nM,0.0
same,pAKT relative to 0.1 nM compound,[1]; 100 nM,0.01
same,IC50,IGF-1R,33 nM
same,% Inh @ 30 nM Avg,"IGF-1R; 30 nM, average",32%
same,IC50,IR,33 nM
same,inhibition at 0.03 µM,"IR; 30 nM, average, read-out: % Inh @ 30 nM Avg",54%
same,inhibition of kinase,AXL [2],strongly inhibited
same,inhibition of kinase,NTRK2(TRKB),strongly inhibited
same,inhibition of kinase,TRKC(NTRK3),strongly inhibited
same,inhibition of kinase,PYK2,strongly inhibited
"O=C(Nc1ccc(F)nc1)C1CC(O)CN1c1nc2c(c(Nc3cc(C4CC4)[nH]n3)n1)CCC2 (racemic) [Compound 10d, 1-(4-(5-cyclopropyl-1H-pyrazol-3-ylamino)-6,7-dihydro-5H-cyclopenta[d]pyrimidin-2-yl)-N-(6-fluoropyridin-3-yl)-4-hydroxypyrrolidine-2-carboxamide]",pAKT relative to 0.1 nM compound,[1]; 1 nM,0.84
same,pAKT relative to 0.1 nM compound,[1]; 10 nM,0.23
same,pAKT relative to 0.1 nM compound,[1]; 100 nM,0.01
same,inhibition of kinase,AXL [2],strongly inhibited
same,inhibition of kinase,NTRK2(TRKB),strongly inhibited
same,inhibition of kinase,TRKC(NTRK3),strongly inhibited
same,inhibition of kinase,PYK2,strongly inhibited
"CC(C)c1cc(Nc2nc(N3CCCC3C(=O)N3CCCCC3)nc3c2CCC3)n[nH]1 (stereo not shown) [Compound 73b, (1-(4-(5-isopropyl-1H-pyrazol-3-ylamino)-6,7-dihydro-5H-cyclopenta[d]pyrimidin-2-yl)pyrrolidin2--yl)(piperidin-1-yl)methanone]",IC50,IGF-1R,1400 nM
same,IC50,IR,1300 nM
same,inhibition at 0.1 µM,Trk C,> 60%
same,inhibition at 0.1 µM,AXL [3],< 39%
same,inhibition at 0.1 µM,c-Met,< 39%
same,inhibition at 0.1 µM,c-Mer,< 39%
